This is an account of results in PubChem BioAssay (NCI).

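All cell lines were grown in 96-well plates and treated with compound for 48 hours. GI50 marks 50% less growth. Definition used: TGI = concentration required for complete inhibition of growth.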

Test systems include EKVX NSCLC; U251 CNS; MALME-3M melanoma; LOX IMVI melanoma; HCT-116 colon; COLO 205 colon; HS 578T breast; NCI/ADR-RES ovarian; NCI-H23 lung; MOLT-4 leukemia.
Experiment in all cases: NCI-60 cell line screen, 48 h

In the case of `CCOC(=O)C1=C(c2ccccc2)N(c2ccc(OC)cc2)[C@]2(C#N)C(O)=C(Cl)C(Cl)=C(O)[C@]12C#N`, the GI50 in the experiment with EKVX NSCLC is 40.1 µM; with U251 CNS it was 22.5 µM; in the experiment on MALME-3M melanoma it was 18.7 µM; in the experiment on LOX IMVI melanoma it was 16.4 µM; in the experiment on HCT-116 colon, 16.3 µM; with COLO 205 colon it was 18.6 µM. For the same compound, the GI50 in the experiment with HS 578T breast is 43.5 µM; in the experiment on NCI/ADR-RES ovarian it was 15.6 µM; in the experiment with NCI-H23 lung it was 17.7 µM; in the experiment on MOLT-4 leukemia, 21.9 µM. Further, the TGI with EKVX NSCLC is above 100 µM; in the experiment on U251 CNS, 52.5 µM; with MALME-3M melanoma, 42.6 µM; in the experiment on LOX IMVI melanoma, 30.9 µM; in the experiment with HCT-116 colon it was 29.8 µM; in the experiment with COLO 205 colon, 33.5 µM. For the same compound, the TGI was above 100 µM in the experiment with HS 578T breast, 36.5 µM in the experiment on NCI/ADR-RES ovarian, 33.1 µM in the experiment on NCI-H23 lung and 56.9 µM with MOLT-4 leukemia.
As to `COc1ccc(-c2ccccc2)cc1-c1c(Nc2cc(Cl)cc(Cl)c2O)c(=O)c1=O`, the GI50 with EKVX NSCLC was 1.51 µM; in the experiment on U251 CNS, 1.63 µM; with MALME-3M melanoma, 1.19 µM; with LOX IMVI melanoma, 1.72 µM; in the experiment on HCT-116 colon, 1.58 µM; in the experiment with COLO 205 colon it was 1.9 µM. The GI50 is 1.25 µM with HS 578T breast, 1.38 µM with NCI/ADR-RES ovarian, 1.38 µM in the experiment on NCI-H23 lung and 1.78 µM in the experiment on MOLT-4 leukemia. The TGI is above 50 µM in the experiment with EKVX NSCLC; above 50 µM with U251 CNS; 3.5 µM in the experiment on MALME-3M melanoma; above 50 µM in the experiment on LOX IMVI melanoma; above 50 µM in the experiment with HCT-116 colon; 44.8 µM with COLO 205 colon. Moreover, the TGI in the experiment with HS 578T breast was 4.55 µM; with NCI/ADR-RES ovarian, above 50 µM; with NCI-H23 lung it was above 50 µM; in the experiment on MOLT-4 leukemia, above 50 µM.
As to `COc1ccc(-n2c(C)nc3c(c(C)nn3-c3ccccc3)c2=O)cc1`, the GI50 was 0.144 µM in the experiment on EKVX NSCLC; 0.0614 µM in the experiment on U251 CNS; 15.9 µM in the experiment on MALME-3M melanoma; 0.065 µM in the experiment on LOX IMVI melanoma; 0.0443 µM in the experiment on HCT-116 colon; 0.12 µM in the experiment on COLO 205 colon. Besides, the GI50 with HS 578T breast was 0.0528 µM; in the experiment with NCI/ADR-RES ovarian, 0.0534 µM; in the experiment on NCI-H23 lung, 0.218 µM; with MOLT-4 leukemia, 0.196 µM. The TGI was above 100 µM in the experiment on EKVX NSCLC; above 100 µM in the experiment with U251 CNS; above 100 µM in the experiment with MALME-3M melanoma; above 100 µM with LOX IMVI melanoma; 7.91 µM in the experiment with HCT-116 colon; 1.93 µM with COLO 205 colon. Moreover, the TGI with HS 578T breast is above 100 µM; in the experiment on NCI/ADR-RES ovarian, above 100 µM; in the experiment with NCI-H23 lung it was above 100 µM; in the experiment with MOLT-4 leukemia it was above 40.4 µM.
In the case of `O=C(/C=C\c1ccc2ccccc2n1)c1cc(Cl)ccc1O`, the GI50 in the experiment on EKVX NSCLC is 13.7 µM; in the experiment with U251 CNS it was 2.31 µM; in the experiment on MALME-3M melanoma it was 8.64 µM; in the experiment with LOX IMVI melanoma, 2.84 µM; in the experiment on HCT-116 colon, 3.38 µM; in the experiment on COLO 205 colon, 5.74 µM. Also, the GI50 was 16.2 µM in the experiment with HS 578T breast, 2.6 µM in the experiment with NCI/ADR-RES ovarian, 5.9 µM in the experiment with NCI-H23 lung and 3.12 µM in the experiment with MOLT-4 leukemia. For the same compound, the TGI turned out to be 87.5 µM in the experiment on EKVX NSCLC; 5.2 µM in the experiment with U251 CNS; 25.8 µM in the experiment on MALME-3M melanoma; 11.7 µM with LOX IMVI melanoma; 11.3 µM in the experiment on HCT-116 colon; 18.4 µM with COLO 205 colon. Also, the TGI in the experiment with HS 578T breast was determined as 62.6 µM; in the experiment on NCI/ADR-RES ovarian it was 8.04 µM; in the experiment on NCI-H23 lung it was 19.7 µM; with MOLT-4 leukemia, 24.1 µM.
